Holding throughout (format): cell-based
The subject of experiment [1] is recombinant strain, Sphingomonas paucimobilis (SEQ ID NO. 1). As to the kind of experiment: Verification of substrate specificity: fluorescence reaction of recombinant strain in inorganic medium (LIVE/DEAD BacLight staining, micro-plate reader). The conditions noted are these: inorganic medium with pyruvate; about 50 mg/L through about 500 mg/L; FIG. 2. The protocol:
Phenanthrene was added to an inorganic medium including pyruvate as a carbon source, up to phenanthrene concentrations of about 50 mg/L through about 500 mg/L, the recombinant strain was inoculated, and a sample was taken every 24-hour and stained using LIVE/DEAD BacLight bacterial viability kit (Molecular Probes, L7012) and a fluorescence reaction was measured by a micro-plate reader.
A reaction of the recombinant strain with respect to an inorganic medium including hexane and hexadecane that are aliphatic hydrocarbon having the equivalent concentration, hexane concentrations being about 50 mg/L through about 500 mg/L and hexadecane concentrations being about 50 mg/L through about 500 mg/L, and a reaction of the recombinant strain with respect to an inorganic medium including toluene that is a monoaromatic hydrocarbon, toluene concentrations being about 1 mg/L through about 50 mg/L, were respectively measured for comparison.
The LIVE/DEAD BacLight bacterial viability kit is a dying scheme that labels, using a DNA-binding dye, DNA of a live microorganism with green fluorescence and labels, using […], DNA of dead microorganism with red fluorescence and thus, indicates a viability of microorganisms.
The reaction of the recombinant strain was expressed by a relative fluorescence intensity FL/FL0, that is, a value obtained by dividing a fluorescence reaction value FL of a recombinant strain exposed to a target contaminant by a fluorescence reaction value FL0 of a recombinant strain that is not exposed to the target contaminant. The relative fluorescence intensity FL/FL0 expresses the reaction of the recombinant strain, which is based on a concentration of contaminant, with a rate of decreasing fluorescence and thus, an error rate may be reduced during a test, and a concentration of toxicity may be expressed with a standardized fluorescence intensity value.

Experiment [2] shares this test system. As to the kind of experiment: Performance of recombinant strain in model soil (Ottawa sand), CLSM fluorescence quantified with ImageJ. The conditions noted are these: model soil contaminated 50 mg/kg to 1000 mg/kg; FIG. 3. The text has this: (§1) A confocal laser scanning microscope (CLSM) may measure a fluorescence reaction of the mixture of a soil sample and microorganisms to analyze phenanthrene in the soil sample. An image including measured green fluorescence and measured red fluorescence may be converted into a grayscale image after removing the measured red fluorescence from the image based on Adobe Photoshop CS4 (Adobe Systems, CA, USA). An integrated fluorescence intensity in an image of 254×254 pixels was quantified using a measure function of ImageJ program (ImageJ; Rasband, 1997-2009). The integrated fluorescence intensity may be a value obtained by dividing sum of illuminance of all the pixels by a number of the pixels in the image.
Ottawa sand was used as a model soil. The model soil was contaminated with phenanthrene up to concentrations from 50 mg/kg to 1000 mg/kg, an inorganic medium including pyruvate as a source of carbon was added, the inorganic medium of 10 mL per the model soil of 2 g, the recombinant strain was inoculated, and a sample was taken every 24-hour to measure a fluorescence response.
A fluorescence response was photographed by a CLSM to directly measure a mixture of the model soil, the liquid medium, and the recombinant strain, and the measured fluorescence reaction was quantified using an ImageJ program. […]

The test system is the same in experiment [3]. As to the kind of experiment: Performance of recombinant strain in real soil (M soil), CLSM fluorescence. As to conditions: 50 mg/kg to 1000 mg/kg, 24-hours, FIGS. 5 and 6.
From the text: as §1
Phenanthrene was added to soil that had not been contaminated with phenanthrene up to concentrations from 50 mg/kg to 1000 mg/kg, an inorganic medium was added, the inorganic medium of 10 mL per soil of 2 g, the recombinant strain was inoculated and cultivated for 24-hours, and a reaction was measured in the same manner as Example 3.

For `CCCCCCCCCCCCCCCC` [hexadecane], in experiment [1], the “response of the recombinant strain (relative fluorescence intensity FL/FL0)” value was “may not respond”.

As to `CCCCCC` [hexane], the “response of the recombinant strain (relative fluorescence intensity FL/FL0)” value in experiment [1] is “may not respond”.

Take `c1ccc2c(c1)ccc1ccccc12` [phenanthrene]: the “response of the recombinant strain to phenanthrene in Ottawa sand” value in experiment [2] was “as phenanthrene concentrations increase, a number of live microorganisms decrease”. Besides, the “response of the recombinant strain (relative fluorescence intensity FL/FL0)” value in experiment [1] is “death response”. Besides, in experiment [3], the “reaction of the recombinant strain to phenanthrene in real soil” value is “significantly sensitive to phenanthrene concentrations”.

(Values after patent US8557559B2, “Self-dying recombinant microorganism for measuring soil and water contamination” (priority 2010, dated 2013).)
